Experimental findings from ChEMBL document CHEMBL1909046, “DrugMatrix in vitro pharmacology data” are described below.

Where a SMILES comes first, the peptide text is derived from it. Bridges are numbered along the chain shown (N, C = ends). [ ]: non-standard residue; d: D form. The star is where a group is joined. Threoninol(2S,3R) = C[C@@H](O)[C@H](CO)N*

Data set [1] has as its target Sodium-dependent noradrenaline transporter (Homo sapiens, UniProt P23975). The data set is described as follows: DRUGMATRIX: Norepinephrine Transporter radioligand binding (ligand: [125I] RTI-55). The data set is classed as cell membranes, MDCK, Membrane. The settings on record: mdck; Not Active = under 50% inhibition at 10 µM.
The next data set addresses Vasopressin V1a receptor (Homo sapiens, UniProt P37288). The data set is classed as cell membranes, Membrane. The settings on record: hek293.
The nature of data set [2]: DRUGMATRIX: GABAA, Flunitrazepam, Central radioligand binding (ligand: [3H] Flunitrazepam). The conditions noted are these: Not Active = under 50% inhibition at 10 µM. The data set is classed as cell membranes, Rattus norvegicus, Wistar, Brain, Membrane.
The target of data set [3] is T1, 3-hydroxy-3-methylglutaryl-coenzyme A reductase (Homo sapiens, UniProt P04035).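 Note: enzyme inhibition assay of HMG-CoA reductase using radiolabeled [14C]HMG-CoA as substrate; in other assays of this panel Not Active means under 50% inhibition at 10 µM.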
T1 sequence (P04035 whole entry): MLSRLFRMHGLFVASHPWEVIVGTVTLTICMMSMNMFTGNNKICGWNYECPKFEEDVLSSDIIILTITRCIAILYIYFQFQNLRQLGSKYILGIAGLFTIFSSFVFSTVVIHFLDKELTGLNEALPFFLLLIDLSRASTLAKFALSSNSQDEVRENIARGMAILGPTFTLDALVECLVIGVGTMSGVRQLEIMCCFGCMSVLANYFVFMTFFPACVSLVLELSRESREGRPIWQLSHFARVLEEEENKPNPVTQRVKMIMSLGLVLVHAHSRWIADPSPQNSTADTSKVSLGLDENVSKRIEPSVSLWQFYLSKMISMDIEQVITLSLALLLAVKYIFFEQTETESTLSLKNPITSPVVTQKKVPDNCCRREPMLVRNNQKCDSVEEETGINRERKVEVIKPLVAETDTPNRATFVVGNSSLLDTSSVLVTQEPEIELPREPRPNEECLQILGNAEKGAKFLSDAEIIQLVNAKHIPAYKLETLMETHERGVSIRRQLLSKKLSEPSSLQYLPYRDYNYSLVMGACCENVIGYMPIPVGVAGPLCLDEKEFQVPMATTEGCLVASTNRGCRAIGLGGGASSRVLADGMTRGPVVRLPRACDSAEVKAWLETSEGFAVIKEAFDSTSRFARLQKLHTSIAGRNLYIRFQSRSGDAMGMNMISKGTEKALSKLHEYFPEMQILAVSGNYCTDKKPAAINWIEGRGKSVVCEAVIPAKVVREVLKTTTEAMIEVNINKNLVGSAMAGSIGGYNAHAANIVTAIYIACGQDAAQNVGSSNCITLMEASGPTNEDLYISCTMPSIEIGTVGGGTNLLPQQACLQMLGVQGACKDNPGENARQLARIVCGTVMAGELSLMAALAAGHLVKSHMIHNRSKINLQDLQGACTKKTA
Set-up: species or system Escherichia coli.

Data set [4] deals with Platelet-activating factor receptor (Homo sapiens, UniProt P25105). The data set is classed as tissue-based.
Sequence of Platelet-activating factor receptor (P25105 whole entry): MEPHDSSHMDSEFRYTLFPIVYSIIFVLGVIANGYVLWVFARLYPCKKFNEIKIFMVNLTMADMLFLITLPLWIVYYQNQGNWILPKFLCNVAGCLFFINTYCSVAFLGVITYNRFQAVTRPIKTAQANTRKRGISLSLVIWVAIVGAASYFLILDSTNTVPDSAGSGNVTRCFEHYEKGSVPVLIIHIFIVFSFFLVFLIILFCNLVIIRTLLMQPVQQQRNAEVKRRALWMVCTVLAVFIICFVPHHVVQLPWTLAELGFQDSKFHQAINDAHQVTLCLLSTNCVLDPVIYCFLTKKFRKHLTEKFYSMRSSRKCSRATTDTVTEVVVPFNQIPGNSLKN
The target in data set [5] is Mitogen-activated protein kinase 14 (Homo sapiens, UniProt Q16539). Set-up: species or system Escherichia coli.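 Note: inhibition of p38alpha enzyme activity in a biochemical kinase assay, with myelin basic protein serving as substrate; in other assays of this panel Not Active means under 50% inhibition at 10 µM.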
Sequence of Mitogen-activated protein kinase 14 (Q16539 whole entry): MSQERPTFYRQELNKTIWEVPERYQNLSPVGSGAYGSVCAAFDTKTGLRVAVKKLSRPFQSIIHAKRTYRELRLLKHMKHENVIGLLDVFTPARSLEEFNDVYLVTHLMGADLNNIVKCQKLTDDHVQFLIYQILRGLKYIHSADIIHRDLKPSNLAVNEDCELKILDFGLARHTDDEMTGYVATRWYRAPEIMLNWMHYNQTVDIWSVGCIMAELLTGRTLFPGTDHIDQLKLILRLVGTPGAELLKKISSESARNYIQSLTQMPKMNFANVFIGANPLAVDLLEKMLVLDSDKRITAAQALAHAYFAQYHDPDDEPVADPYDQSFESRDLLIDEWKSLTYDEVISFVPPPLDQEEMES
The next data set concerns the target Cytochrome P450 2D6 (Homo sapiens, UniProt P10635). The settings on record: bti-tn-5b1-4. Note: in other assays of this panel Not Active means under 50% inhibition at 10 µM.
Another data set addresses Estrogen receptor beta (Homo sapiens, UniProt Q92731). The settings on record: sf9.

Sequence of Sodium-dependent noradrenaline transporter (P23975 whole entry): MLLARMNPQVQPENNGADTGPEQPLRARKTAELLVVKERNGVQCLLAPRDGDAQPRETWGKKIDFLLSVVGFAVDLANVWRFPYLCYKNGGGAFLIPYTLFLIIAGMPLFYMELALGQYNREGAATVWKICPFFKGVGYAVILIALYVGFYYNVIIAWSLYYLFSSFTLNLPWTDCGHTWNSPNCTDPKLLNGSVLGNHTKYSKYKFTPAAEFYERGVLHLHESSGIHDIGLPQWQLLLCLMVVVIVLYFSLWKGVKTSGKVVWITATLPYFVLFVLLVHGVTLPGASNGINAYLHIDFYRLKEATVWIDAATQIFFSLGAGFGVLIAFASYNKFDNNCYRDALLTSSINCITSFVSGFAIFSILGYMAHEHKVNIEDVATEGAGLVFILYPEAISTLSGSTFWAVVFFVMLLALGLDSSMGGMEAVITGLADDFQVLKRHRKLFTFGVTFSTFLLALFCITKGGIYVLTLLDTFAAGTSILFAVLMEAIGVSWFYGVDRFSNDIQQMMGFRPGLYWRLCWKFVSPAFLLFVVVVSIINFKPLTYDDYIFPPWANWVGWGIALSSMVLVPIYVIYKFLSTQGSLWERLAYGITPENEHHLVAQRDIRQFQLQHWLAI
Sequence of Vasopressin V1a receptor (P37288 whole entry): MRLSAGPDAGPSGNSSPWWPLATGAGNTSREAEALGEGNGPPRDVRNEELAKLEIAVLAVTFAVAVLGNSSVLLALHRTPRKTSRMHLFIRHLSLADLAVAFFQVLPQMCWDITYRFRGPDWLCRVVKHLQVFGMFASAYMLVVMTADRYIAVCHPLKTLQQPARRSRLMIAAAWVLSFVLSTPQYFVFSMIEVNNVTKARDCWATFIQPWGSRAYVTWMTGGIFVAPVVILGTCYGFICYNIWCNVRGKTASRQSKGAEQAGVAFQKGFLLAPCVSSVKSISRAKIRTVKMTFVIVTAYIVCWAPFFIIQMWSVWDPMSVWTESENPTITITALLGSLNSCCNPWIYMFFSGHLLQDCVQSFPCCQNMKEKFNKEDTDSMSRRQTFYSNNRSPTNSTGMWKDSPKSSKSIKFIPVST
Sequence of Cytochrome P450 2D6 (P10635 whole entry): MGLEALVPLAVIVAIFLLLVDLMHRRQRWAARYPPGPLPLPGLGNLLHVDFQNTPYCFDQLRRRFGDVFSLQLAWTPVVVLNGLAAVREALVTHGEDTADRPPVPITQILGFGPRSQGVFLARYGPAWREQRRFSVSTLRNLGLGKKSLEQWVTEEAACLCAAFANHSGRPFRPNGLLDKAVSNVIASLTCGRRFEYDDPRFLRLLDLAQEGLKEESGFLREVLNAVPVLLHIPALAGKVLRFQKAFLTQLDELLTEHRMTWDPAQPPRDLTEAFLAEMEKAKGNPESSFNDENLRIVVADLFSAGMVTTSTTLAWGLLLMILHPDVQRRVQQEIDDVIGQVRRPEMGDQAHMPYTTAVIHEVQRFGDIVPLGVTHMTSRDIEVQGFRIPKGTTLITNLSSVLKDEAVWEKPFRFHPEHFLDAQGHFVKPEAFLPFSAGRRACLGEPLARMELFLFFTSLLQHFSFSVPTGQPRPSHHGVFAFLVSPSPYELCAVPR
Sequence of Estrogen receptor beta (Q92731 whole entry): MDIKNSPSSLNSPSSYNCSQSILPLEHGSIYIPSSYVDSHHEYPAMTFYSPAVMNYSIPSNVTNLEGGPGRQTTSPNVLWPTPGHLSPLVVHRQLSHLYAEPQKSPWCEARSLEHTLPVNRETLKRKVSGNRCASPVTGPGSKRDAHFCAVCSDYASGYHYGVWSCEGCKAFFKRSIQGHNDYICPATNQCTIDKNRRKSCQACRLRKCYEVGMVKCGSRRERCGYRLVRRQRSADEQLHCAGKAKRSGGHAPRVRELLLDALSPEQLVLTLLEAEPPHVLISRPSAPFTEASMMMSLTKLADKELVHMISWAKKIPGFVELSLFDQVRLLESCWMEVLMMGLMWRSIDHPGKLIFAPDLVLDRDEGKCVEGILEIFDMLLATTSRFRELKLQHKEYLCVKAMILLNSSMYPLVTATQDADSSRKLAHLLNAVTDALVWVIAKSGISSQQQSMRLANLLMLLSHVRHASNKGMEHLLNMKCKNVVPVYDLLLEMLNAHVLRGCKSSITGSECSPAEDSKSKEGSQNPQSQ

For the molecule `Cc1ccccc1C(=O)N1CCC(Cc2ccccc2)CC1`, the IC50 result in data set [1] was “Not Active”; against Vasopressin V1a receptor, “Not Active”; in data set [2], “Not Active”; in data set [3], “Not Active”; in data set [4], “Not Active”; in data set [5] (read-out: IC50), 329 nM. For the same molecule, the IC50 entry against Cytochrome P450 2D6 and against Estrogen receptor beta was “Not Active” each time. In addition, the Ki entry (in data set [2]; at Cytochrome P450 2D6) was “Not Active” throughout.

Consider `O=C1CC[C@H](N2C(=O)c3ccccc3C2=O)C(=O)N1`, for which the half-inhibitory concentration (IC50) entry (in data set [1]; on Vasopressin V1a receptor; in data set [2]; in data set [3]; in data set [4]; in data set [5]) was “Not Active” in each case. Also, the concentration for half-maximal inhibition (IC50) entry against Cytochrome P450 2D6 and against Estrogen receptor beta was “Not Active” each time. The Ki result (in data set [2]; on Cytochrome P450 2D6) was “Not Active” each time.

As for `C[C@@H](O)[C@H](CO)NC(=O)[C@@H]1CSSC[C@H](NC(=O)[C@H](N)Cc2ccccc2)C(=O)N[C@@H](Cc2ccccc2)C(=O)N[C@H](Cc2c[nH]c3ccccc23)C(=O)N[C@@H](CCCCN)C(=O)N[C@@H]([C@@H](C)O)C(=O)N1` (H-[dF]CF[dW]KTC-{Threoninol(2S,3R)}; disulfide 2-7), the IC50 entry (in data set [1]; at Vasopressin V1a receptor; in data set [2]; in data set [3]; in data set [4]; in data set [5]) was “Not Active” in each case. Further, the IC50 result against Cytochrome P450 2D6 and against Estrogen receptor beta was “Not Active” each time. In addition, the Ki entry (in data set [2]; on Cytochrome P450 2D6) was “Not Active” in each case.

For the molecule `S=C=Nc1cccc2ccccc12` [1-NAPHTHYLISOTHIOCYANATE], the IC50 result (in data set [1]; against Vasopressin V1a receptor; in data set [2]; in data set [3]; in data set [4]; in data set [5]) was “Not Active” each time. The concentration for half-maximal inhibition (IC50) entry on Cytochrome P450 2D6 and against Estrogen receptor beta was “Not Active” in each case. Besides, the Ki result (in data set [2]; at Cytochrome P450 2D6) was “Not Active” each time.

For `CCCC(=O)Nc1ccc(OCC(O)CNC(C)C)c(C(C)=O)c1` (stereo unspecified) [ACEBUTOLOL], the IC50 result (in data set [1]; against Vasopressin V1a receptor; in data set [2]; in data set [3]; in data set [4]; in data set [5]) was “Not Active” in each case. The half-inhibitory concentration (IC50) entry against Cytochrome P450 2D6 and at Estrogen receptor beta was “Not Active” throughout. The Ki entry (in data set [2]; at Cytochrome P450 2D6) was “Not Active” throughout.

For the molecule `CC(=O)Nc1ccc(O)cc1` [ACETAMINOPHEN], the IC50 entry (in data set [1]; on Vasopressin V1a receptor; in data set [2]; in data set [3]; in data set [4]; in data set [5]) was “Not Active” each time. In addition, the IC50 result on Cytochrome P450 2D6 and against Estrogen receptor beta was “Not Active” throughout. In addition, the Ki entry (in data set [2]; at Cytochrome P450 2D6) was “Not Active” each time.

For `COc1cc2c(c3oc(=O)c4c(c13)CCC4=O)[C@@H]1C=CO[C@@H]1O2` [AFLATOXIN], the IC50 entry (in data set [1]; against Vasopressin V1a receptor; in data set [2]; in data set [3]; in data set [4]; in data set [5]) was “Not Active” each time. Besides, the IC50 entry on Cytochrome P450 2D6 and at Estrogen receptor beta was “Not Active” each time. For the same molecule, the Ki result (in data set [1]; at Vasopressin V1a receptor; in data set [2]; in data set [3]; in data set [4]; in data set [5]) was “Not Active” throughout. The Ki entry on Cytochrome P450 2D6 and at Estrogen receptor beta was “Not Active” throughout.

For the molecule `N=C(N)NC(=O)c1nc(Cl)c(N)nc1N` [AMILORIDE], the IC50 entry (in data set [1]; against Vasopressin V1a receptor; in data set [2]; in data set [3]; in data set [4]; in data set [5]) was “Not Active” each time. For the same molecule, the half-inhibitory concentration (IC50) entry against Cytochrome P450 2D6 and at Estrogen receptor beta was “Not Active” each time. Further, the Ki entry (in data set [2]; at Cytochrome P450 2D6) was “Not Active” in each case.

For the molecule `Cc1cc(=O)n(-c2ccccc2)n1C` [ANTIPYRINE], the IC50 entry (in data set [1]; against Vasopressin V1a receptor; in data set [2]; in data set [3]; in data set [4]; in data set [5]) was “Not Active” in each case. For the same molecule, the concentration for half-maximal inhibition (IC50) result against Cytochrome P450 2D6 and against Estrogen receptor beta was “Not Active” in each case. In addition, the Ki entry (in data set [2]; on Cytochrome P450 2D6) was “Not Active” throughout.

Regarding `CCOC(=O)[C@H](CCc1ccccc1)N[C@H]1CCc2ccccc2N(CC(=O)O)C1=O` [BENAZEPRIL], the IC50 result (in data set [1]; at Vasopressin V1a receptor; in data set [2]; in data set [3]; in data set [4]; in data set [5]) was “Not Active” throughout. Also, the 50% inhibitory concentration (IC50) entry against Cytochrome P450 2D6 and on Estrogen receptor beta was “Not Active” each time. Further, the Ki entry (in data set [2]; at Cytochrome P450 2D6) was “Not Active” throughout.

With `Nc1c(CC(=O)O)cccc1C(=O)c1ccc(Br)cc1` [BROMFENAC], the half-inhibitory concentration (IC50) result (in data set [1]; against Vasopressin V1a receptor; in data set [2]; in data set [3]; in data set [4]; in data set [5]) was “Not Active” in each case. Also, the IC50 result against Cytochrome P450 2D6 and on Estrogen receptor beta was “Not Active” each time. Also, the Ki entry (in data set [2]; on Cytochrome P450 2D6) was “Not Active” each time.

Take `ClC(Cl)Cl` [CHLOROFORM]: the half-maximal inhibitory concentration (IC50) entry (in data set [1]; against Vasopressin V1a receptor; in data set [2]; in data set [3]; in data set [4]; in data set [5]) was “Not Active” in each case. The IC50 result against Cytochrome P450 2D6 and on Estrogen receptor beta was “Not Active” in each case. In addition, the Ki result (in data set [2]; at Cytochrome P450 2D6) was “Not Active” each time.

For the molecule `C=C1CC[C@H](O)C/C1=C/C=C1\CCC[C@]2(C)[C@@H]([C@H](C)CCCC(C)C)CC[C@@H]12` [CHOLECALCIFEROL], the half-maximal inhibitory concentration (IC50) entry (in data set [1]; against Vasopressin V1a receptor; in data set [2]; in data set [3]; in data set [4]; in data set [5]) was “Not Active” each time. Also, the 50% inhibitory concentration (IC50) entry on Cytochrome P450 2D6 and against Estrogen receptor beta was “Not Active” each time. The Ki result (in data set [2]; on Cytochrome P450 2D6) was “Not Active” throughout.

Consider `CC(=O)OCC(=O)[C@@]1(O)CC[C@H]2[C@@H]3CCC4=CC(=O)CC[C@]4(C)[C@H]3C(=O)C[C@@]21C` [CORTISONE ACETATE], for which the IC50 result (in data set [1]; against Vasopressin V1a receptor; in data set [2]; in data set [3]; in data set [4]; in data set [5]) was “Not Active” each time. For the same molecule, the IC50 entry at Cytochrome P450 2D6 and against Estrogen receptor beta was “Not Active” each time. For the same molecule, the Ki result (in data set [2]; on Cytochrome P450 2D6) was “Not Active” in each case.

Regarding `O=c1ccc2ccccc2o1` [COUMARIN], the IC50 entry (in data set [1]; against Vasopressin V1a receptor; in data set [2]; in data set [3]; in data set [4]; in data set [5]) was “Not Active” each time. For the same molecule, the IC50 result on Cytochrome P450 2D6 and against Estrogen receptor beta was “Not Active” throughout. The Ki result (in data set [2]; at Cytochrome P450 2D6) was “Not Active” each time.

With `CN(C)/N=N/c1[nH]cnc1C(N)=O` [DACARBAZINE], the IC50 result (in data set [1]; on Vasopressin V1a receptor; in data set [2]; in data set [3]; in data set [4]; in data set [5]) was “Not Active” throughout. Further, the half-inhibitory concentration (IC50) entry on Cytochrome P450 2D6 and on Estrogen receptor beta was “Not Active” in each case. Moreover, the Ki result (in data set [2]; at Cytochrome P450 2D6) was “Not Active” throughout.

In the case of `COc1ccc2c(c1)[C@]13CCCC[C@@H]1[C@H](C2)N(C)CC3` [DEXTROMETHORPHAN], the IC50 result (in data set [1]; on Vasopressin V1a receptor; in data set [2]; in data set [3]; in data set [4]; in data set [5]) was “Not Active” in each case. Besides, the half-maximal inhibitory concentration (IC50) entry on Cytochrome P450 2D6 and against Estrogen receptor beta was “Not Active” in each case. Besides, the Ki entry (in data set [2]; on Cytochrome P450 2D6) was “Not Active” throughout.
